Each compound was assayed against Aldehyde dehydrogenase, mitochondrial (Mesocricetus auratus) (assay: Inhibition of Hamster Liver mitochondrial ALDH-2).
With `O=c1c(-c2ccc(O)cc2)coc2cc(OCCC3OCCCO3)ccc12` [7-(2-[1,3]Dioxan-2-yl-ethoxy)-3-(4-hydroxy-phenyl)-chromen-4-one] the IC50 was 0.4 µM. `C=CCOc1ccc2c(=O)c(-c3ccc(O)cc3)coc2c1` [7-Allyloxy-3-(4-hydroxy-phenyl)-chromen-4-one] gave an IC50 of 0.8 µM. Compound `CCOc1ccc2c(=O)c(-c3ccc(O)cc3)coc2c1` [7-Ethoxy-3-(4-hydroxy-phenyl)-chromen-4-one] has an IC50 of 0.04 µM. `O=C(O)CCCCCCOc1ccc2c(=O)c(-c3ccc(O)cc3)coc2c1` [7-[3-(4-Hydroxy-phenyl)-4-oxo-4H-chromen-7-yloxy]-heptanoic acid] was tested, and the IC50 was 0.009 µM. In the case of `O=C(O)CCCCCCCCCOc1ccc2c(=O)c(-c3ccc(O)cc3)coc2c1` [10-(3-(4-hydroxyphenyl)-4-oxo-4H-chromen-7-yloxy)decanoic acid], the IC50 is reported as 0.004 µM.

These compounds were tested against Aldehyde dehydrogenase, mitochondrial (Mesocricetus auratus) (assay: Compound was evaluated for the inhibition of Hamster Liver mitochondrial ALDH-2).
With `O=c1c(-c2ccc(O)cc2)coc2cc(OCC(O)CO)ccc12` (stereo unspecified) [7-(2,3-Dihydroxy-propoxy)-3-(4-hydroxy-phenyl)-chromen-4-one] the IC50 was 0.1 µM.

— BindingDB's records for doi:10.1021/jm990614i (Harvard Medical School, 2000)
